The target of data set [1] is T1, rat plasma albumin (Rattus norvegicus, UniProt P02770). As to the kind of experiment: biochemical. It counts as binding.
For data set [2], the target named is T1, rat plasma albumin. The data set is described as follows: Plasma albumin binding by pesticide in vivo after oral dosing of rats. More on the design: species or system F344 rats. The following applies: for inhibition of binding of the ^3H-DFP-radiolabelled albumin molecules in vivo: 25% of LD50, plasma 1 day after dosing.
Data set [3] deals with Erythrocyte AChE. The conditions noted are these: steady (linear) recovery; ref Mason [2000]; cited from earlier work.
For data set [4], the system named is rats. As to the kind of experiment: Clinical signs in rats after oral dosing.
The target in data set [5] is erythrocyte AChE (Rattus norvegicus, UniProt P37136). The data set is described as follows: Erythrocyte AChE inhibition after oral dosing of rats. It counts as in vivo, F344 rats.

For orientation: IC50 means the point on the concentration scale where inhibition reaches its midpoint. Higher therefore signals lower potency. For orientation: inhibition means the percentage by which the read-out fell short of the control.

T1 sequence (P02770 25-608): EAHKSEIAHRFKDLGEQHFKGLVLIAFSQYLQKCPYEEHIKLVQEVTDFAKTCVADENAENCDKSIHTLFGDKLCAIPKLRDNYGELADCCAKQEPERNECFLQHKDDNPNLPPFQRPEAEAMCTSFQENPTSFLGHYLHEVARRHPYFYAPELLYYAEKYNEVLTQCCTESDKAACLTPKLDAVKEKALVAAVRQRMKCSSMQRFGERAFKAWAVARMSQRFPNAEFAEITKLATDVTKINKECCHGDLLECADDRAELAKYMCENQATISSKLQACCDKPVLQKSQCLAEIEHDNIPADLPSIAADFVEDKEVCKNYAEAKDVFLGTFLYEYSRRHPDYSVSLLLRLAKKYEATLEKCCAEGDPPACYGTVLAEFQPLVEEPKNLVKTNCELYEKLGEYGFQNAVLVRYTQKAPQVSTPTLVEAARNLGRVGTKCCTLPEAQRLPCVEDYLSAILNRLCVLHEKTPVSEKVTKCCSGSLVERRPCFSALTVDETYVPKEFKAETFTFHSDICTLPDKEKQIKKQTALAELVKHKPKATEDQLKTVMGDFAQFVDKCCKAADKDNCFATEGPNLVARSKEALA

Consider `CCOC(=O)CC(SP(=O)(OC)OC)C(=O)OCC` (stereo not shown) [Malaoxon], for which the “rat plasma albumin binding (^3H-DFP radiolabelling) reduced from controls” value in data set [1] amounted to 8±1%.
For `CCN(CC)c1nc(C)cc(OP(=S)(OC)OC)n1` [Pirimiphos-methyl, O-2-diethylamino-6-methylpyrimidin-4-yl O,O-dimethyl phosphorothioate], the “inhibition of binding of the ^3H-DFP-radiolabelled albumin molecules in vivo” value in data set [2] is on record as “approximately 50%”.
In the case of `COP(=O)(OC)OC=C(Cl)Cl` [dichlorvos], in data set [3], the “time for erythrocyte AChE to return to control levels” value is listed as “approximately 82 days”.
As for `CCOP(=O)(OCC)OC(=CCl)c1ccc(Cl)cc1Cl` [Chlorfenvinphos (oxon), 2-chloro-1-(2,4-dichlorophenyl)vinyl diethyl phosphate], in data set [4] (12.5% of LD50 (1.25 mg kg^−1)), the clinical signs entry is reported as “not the lower dose”. Besides, in data set [4] (80% of LD50 (8.0 mg kg^−1)), the clinical signs result was “salivation and muscle fasciculation in all rats”. Further, in data set [1], the IC50 is roughly 400 nM, the “^3H-DFP incorporation into rat plasma albumin versus controls (significance)” value is reported as “significantly different from controls” and the “rat plasma albumin binding (^3H-DFP radiolabelling) reduced from controls” value was found to be 67±2%. Further, in data set [2], the “inhibition of binding of the ^3H-DFP-radiolabelled albumin molecules in vivo” value was “approximately 50%”. The “^3H-DFP radiolabelled albumin molecules bound in vivo” value in data set [2] (each of the doses 12.5%, 25% and 80% of LD50, 24 h after dosing) is “approximately 50%”. Moreover, the inhibition at 1.25 mg/kg in data set [5] (rat, po, read-out: erythrocyte AChE inhibition) worked out at 22%.
Regarding `COP(=O)(OC)SCn1c(=O)oc2cc(Cl)cnc21` [Azamethiphos (oxon), S-6-chloro-2,3-dihydro-2-oxo-1,3-oxazolo[4,5-b]pyridin-3-ylmethyl O,O-dimethyl phosphorothioate], in data set [1], the “rat plasma albumin binding (^3H-DFP radiolabelling) reduced from controls” value came out at 9±1%.
As for `CCOC(=O)CC(SP(=S)(OC)OC)C(=O)OCC` (stereo not shown) [Malathion, diethyl (dimethoxyphosphinothioylthio)succinate], in data set [5] (rats, oral, (approximately) 25% of LD50, Day 1 (24 h) after dosing), the “erythrocyte AChE inhibition” value was determined as 57%.

These data come from article PMC3793267 (Biomarkers, 2008).
